The source of these data is patent US6451850B1, “Bio-chemical germanium complexes with high therapeutic efficiency and wide application spectrum” (priority 2001, dated 2002).

The conditions of one experiment: Table 4.
Method: Water solutions or suspensions of the complexes under investigation have been injected intraperitoneally 30÷60 min. before beginning of the experiment. Animals from the control group got equal amounts of physiological salt solution. High altitude hypoxia was made in special air tight chambers, in which a lift of the animals up to the altitude 10,000 m has been imitated by pumping out of air. A criterion of validity for the complexes was increase of mice life length and survivability of these.
Interferon inducing activity of the complexes has been studied with various methods, including the study with native leukocytes of human donor blood.
Antiinflammatory effect has been studied for animals according to the method by Ju. Strel'nikov. Experiments have been carried out with white mice of mass 20 g. Aseptic inflammation was caused by injection of 0.1 ml of 2.5% formalin solution into thigh thickness of an animal's paw. A compound under investigation was injected into the stomach in the dose equimolecular to 20 mg/kg of indometacin two hours before the injection of formalin. Distinction of the edema was estimated by increase of a mass of inflamed and uninflammed paws in experimental groups of animals compared to control ones. […] Simultaneously antiinflammatory activity of indometacin was studied for comparison.
On to `NC12CC3CC(CC(C3)C1)C2.[CH3][Ge]12[O]CCN(CC(=O)[O]1)CC(=O)[O]2`, for which the “Expansion of Effect Spectrum for the Complex Medicament” value (from here on “Expansion of Effect Spectrum”) was “- . -”.

In the case of `Cc1cn([C@H]2C[C@H](N=[N+]=[N-])[C@@H](CO)O2)c(=O)[nH]c1=O.[CH3][Ge]12[O]CCN(CC(=O)[O]1)CC(=O)[O]2`, the “Expansion of Effect Spectrum” value is on record as “- . -”.

Consider `[CH3][Ge]12[O]CCN(CC(=O)[O]1)CC(=O)[O]2.c1ccc(Cc2nc3ccccc3[nH]2)cc1` [Dibasolum OGC (R = CH3, R1R2 = R5R6 = O)], for which the “Expansion of Effect Spectrum” value is “- . -”.

In the case of `[OH][Ge]12[O]CCN(CC[O]1)CC[O]2.c1ccc(Cc2nc3ccccc3[nH]2)cc1` [Dibasolum OGC (R = OH)], the “Expansion of Effect Spectrum” value is “- . -”.

On to `[SH][Ge]12[O]CCN(CC[O]1)CC[O]2.c1ccc(Cc2nc3ccccc3[nH]2)cc1` [Dibasolum OGC (R = SH)], for which the “Expansion of Effect Spectrum” value is recorded as “- . -”.

Take `C[CH2][Ge]12[O]CCN(CC[O]1)CC(=O)[O]2.O=c1[nH]c(=O)n([C@H]2C[C@H](O)[C@@H](CO)O2)cc1I` [Idoxuridine OGC (R = C2H5, R1,R2 = O)]: the “Expansion of Effect Spectrum” value is given as “- . -”.

For `O=c1[nH]c(=O)n(C2CC(O)C(CO)O2)cc1I.[OH][Ge]12[O]CCN(CC[O]1)CC[O]2` (stereo not shown) [Idoxuridine OGC (R = OH)], the “Expansion of Effect Spectrum” value is “- . -”.

For `O=c1[nH]c(=O)n([C@H]2C[C@H](O)[C@@H](CO)O2)cc1I.[SH][Ge]12[O]CCN(CC[O]1)CC[O]2` [Idoxuridine OGC (R = SH)], the “Expansion of Effect Spectrum” value was “- . -”.

For `NC12CC3CC(CC(C3)C1)C2.[OH][Ge]12[O]CCN(CC[O]1)CC[O]2` [Midantanum OGC (R = OH)], the “Expansion of Effect Spectrum” value is listed as “- . -”.

`NC12CC3CC(CC(C3)C1)C2.[SH][Ge]12[O]CCN(CC[O]1)CC[O]2` [Midantanum OGC (R = SH)]: the “Expansion of Effect Spectrum” value was “- . -”.

For `CC(N)C12CC3CC(CC(C3)C1)C2.O=C1CN2CC[O][Ge]([OH])([O]CC2)[O]1` (stereo not shown) [Remantadinum OGC (R = OH, R1R2 = O)], the “Expansion of Effect Spectrum” value is recorded as “- . -”.

On to `CC(N)C12CC3CC(CC(C3)C1)C2.[SH][Ge]12[O]CCN(CC[O]1)CC[O]2` (stereo not shown) [Remantadinum OGC (R = SH)], for which the “Expansion of Effect Spectrum” value was “- . -”.

For `Nc1ncnc2c1ncn2C1OC(CO)C(O)C1O.O=C1CN2CC[O][Ge]([OH])([O]CC2)[O]1` (stereo not shown) [Vidarabinum OGC (R = OH, R1,R2 = O)], the “Expansion of Effect Spectrum” value is given as “- . -”.

Consider `Nc1ncnc2c1ncn2C1OC(CO)C(O)C1O.[OH][Ge]12[O]CCN(CC[O]1)CC[O]2` (stereo not shown) [Vidarabinum OGC(R = OH)], for which the “Expansion of Effect Spectrum” value is given as “- . -”.

For `CC1CN2CC[O][Ge]([OH])([O]CC2)[O]1.Nc1ncnc2c1ncn2C1OC(CO)C(O)C1O` (stereo not shown) [Vidarabinum OGC(R = OH, R1 = CH3)], the “Expansion of Effect Spectrum” value is on record as “- . -”.

For the compound `C[CH2][Ge]12[O]CCN(CC[O]1)CC(=O)[O]2.Nc1nc2c(ncn2COCCO)c(=O)[nH]1` [Virolex OGC (R = C2H5, R1, R2 = O)], the “Expansion of Effect Spectrum” value is on record as “- . -”.

Turning to `Cc1cn([C@H]2C[C@H](N=[N+]=[N-])[C@@H](CO)O2)c(=O)[nH]c1=O.[CH3][Ge]([CH3])([CH3])[O][Ge]12[O]CCN(CC[O]1)CC[O]2` [Zidovudine OGC (R = OGeMe3)], the “Expansion of Effect Spectrum” value is listed as “- . -”.

Regarding `Cc1cn([C@H]2C[C@H](N=[N+]=[N-])[C@@H](CO)O2)c(=O)[nH]c1=O.[OH][Ge]12[O]CCN(CC[O]1)CC[O]2` [Zidovudine OGC (R = OH)], the “Expansion of Effect Spectrum” value is recorded as “- . -”.

`C[Si](C)(C)[O][Ge]12[O]CCN(CC[O]1)CC[O]2.Cc1cn([C@H]2C[C@H](N=[N+]=[N-])[C@@H](CO)O2)c(=O)[nH]c1=O` [Zidovudine OGC (R = OSiMe3)]: the “Expansion of Effect Spectrum” value is given as “- . -”.

For the compound `Cc1cn([C@H]2C[C@H](N=[N+]=[N-])[C@@H](CO)O2)c(=O)[nH]c1=O.[SH][Ge]12[O]CCN(CC[O]1)CC[O]2` [Zidovudine OGC (R = SH)], the “Expansion of Effect Spectrum” value is given as “- . -”.

Still in this experiment, the particulars now being: Table 5.
For the compound `CN(C)CCCN1c2ccccc2Sc2ccc(Cl)cc21.O=C1CN2CC[O][Ge]([C]34CC5CC(CC(C5)C3)C4)([O]1)[O]C(=O)C2`, the “Expansion of Effect Spectrum” value is listed as “- . -”.

For `CN(C)CCC=C1c2ccccc2Sc2ccc(Cl)cc21.C[CH2][Ge]12[O]CCN(CC(=O)[O]1)CC(=O)[O]2`, the “Expansion of Effect Spectrum” value is given as “- . -”.

For the compound `O=C1CN2CC[O][Ge]([C]34CC5CC(CC(C5)C3)C4)([O]1)[O]C(=O)C2.O=C1NC(=O)C(c2ccccc2)(c2ccccc2)N1`, the “Expansion of Effect Spectrum” value was “- . -”.

Consider `CCC1(c2ccccc2)C(=O)NCNC1=O.O=C1CN2CC[O][Ge]([C]34CC5CC(CC(C5)C3)C4)([O]1)[O]C(=O)C2`, for which the “Expansion of Effect Spectrum” value was “- . -”.

As for `N[C@@H](Cc1ccc(O)c(O)c1)C(=O)O.O=C1CN2CC[O][Ge]([C]34CC5CC(CC(C5)C3)C4)([O]1)[O]C(=O)C2`, the “Expansion of Effect Spectrum” value is recorded as “- . -”.

Turning to `CN1CCN(CCCN2c3ccccc3Sc3ccc(Cl)cc32)CC1.[CH3][Ge]12[O]CCN(CC(=O)[O]1)CC(=O)[O]2`, the “Expansion of Effect Spectrum” value is given as “- . -”.

Consider `O=C1CN=C(c2ccccc2Cl)c2cc(Br)ccc2N1.[CH3][Ge]12[O]C(=O)CN(CC(=O)[O]1)CC(=O)[O]2`, for which the “Expansion of Effect Spectrum” value is “- . -”.

As for `O=C1CN2CC[O][Ge]([C]34CC5CC(CC(C5)C3)C4)([O]CC2)[O]1.O=C1CN=C(c2ccccc2Cl)c2cc(Br)ccc2N1`, the “Expansion of Effect Spectrum” value is reported as “- . -”.

Consider `CCC1(c2ccccc2)C(=O)NC(=O)NC1=O.O=C1CN2CC[O][Ge]([C]34CC5CC(CC(C5)C3)C4)([O]1)[O]C(=O)C2`, for which the “Expansion of Effect Spectrum” value was “- . -”.

For `CN(C)CCCN1c2ccccc2Sc2ccc(Cl)cc21.[OH][Ge]12[O]CCN(CC[O]1)CC[O]2` [Aminazinum OGC (R = OH)], the “Expansion of Effect Spectrum” value was “- . -”.

As to `CN(C)CCCN1c2ccccc2Sc2ccc(Cl)cc21.[SH][Ge]12[O]CCN(CC[O]1)CC[O]2` [Aminazinum OGC (R = SH)], the “Expansion of Effect Spectrum” value is on record as “- . -”.

Take `CN(C)CCC=C1c2ccccc2Sc2ccc(Cl)cc21.[OH][Ge]12[O]CCN(CC[O]1)CC[O]2` [Chlorprotexenum OGC (R = OH)]: the “Expansion of Effect Spectrum” value is “- . -”.

On to `CN(C)CCC=C1c2ccccc2Sc2ccc(Cl)cc21.[SH][Ge]12[O]CCN(CC[O]1)CC[O]2` [Chlorprotexenum OGC (R = SH)], for which the “Expansion of Effect Spectrum” value is “- . -”.

With `CN1C(=O)CN=C(c2ccccc2)c2cc(Cl)ccc21.[OH][Ge]12[O]CCN(CC[O]1)CC[O]2` [Diazepam OGC (R = OH)], the “Expansion of Effect Spectrum” value is “- . -”.

As to `CN1C(=O)CN=C(c2ccccc2)c2cc(Cl)ccc21.[SH][Ge]12[O]CCN(CC[O]1)CC[O]2` [Diazepam OGC (R = SH)], the “Expansion of Effect Spectrum” value is given as “- . -”.

On to `O=C1NC(=O)C(c2ccccc2)(c2ccccc2)N1.[OH][Ge]12[O]CCN(CC[O]1)CC[O]2` [Dipheninum OGC (R = OH)], for which the “Expansion of Effect Spectrum” value is recorded as “- . -”.

For the compound `CCC1(c2ccccc2)C(=O)NCNC1=O.[OH][Ge]12[O]CCN(CC[O]1)CC[O]2` [Hexamidinum OGC (R = OH)], the “Expansion of Effect Spectrum” value is listed as “- . -”.

Consider `N[C@@H](Cc1ccc(O)c(O)c1)C(=O)O.[OH][Ge]12[O]CCN(CC[O]1)CC[O]2` [Levodopa OGC (R = OH)], for which the “Expansion of Effect Spectrum” value was “- . -”.

On to `CN1CCN(CCCN2c3ccccc3Sc3ccc(Cl)cc32)CC1.[OH][Ge]12[O]CCN(CC[O]1)CC[O]2` [Meterazinum OGC (R = OH)], for which the “Expansion of Effect Spectrum” value is recorded as “- . -”.

For `CN1CCN(CCCN2c3ccccc3Sc3ccc(Cl)cc32)CC1.[SH][Ge]12[O]CCN(CC[O]1)CC[O]2` [Meterazinum OGC (R = SH)], the “Expansion of Effect Spectrum” value is “- . -”.

Regarding `CN1CCN=C(c2ccccc2)c2cc(Cl)ccc21.[CH3][Ge]12[O]CCN(CC(=O)[O]1)CC(=O)[O]2` [Mezapamun OGC (R = CH3) R1R2 = R5R6 = O)], the “Expansion of Effect Spectrum” value is “- . -”.

For `CN1CCN=C(c2ccccc2)c2cc(Cl)ccc21.[CH3][Ge]([CH3])([CH3])[O][Ge]12[O]CCN(CC[O]1)CC[O]2` [Mezapamun OGC (R = OGeMe3)], the “Expansion of Effect Spectrum” value is reported as “- . -”.

In the case of `CN1CCN=C(c2ccccc2)c2cc(Cl)ccc21.[OH][Ge]12[O]CCN(CC[O]1)CC[O]2` [Mezapamun OGC (R = OH)], the “Expansion of Effect Spectrum” value was “- . -”.

For the compound `CN1CCN=C(c2ccccc2)c2cc(Cl)ccc21.C[Si](C)(C)[O][Ge]12[O]CCN(CC[O]1)CC[O]2` [Mezapamun OGC (R = OSiMe3)], the “Expansion of Effect Spectrum” value is reported as “- . -”.

Consider `CN1CCN=C(c2ccccc2)c2cc(Cl)ccc21.O=C1CN2CC[O][Ge]([C]34CC5CC(CC(C5)C3)C4)([O]CC2)[O]1` [Mezapamun OGC (R = adamantyl, R1R2 = O)], for which the “Expansion of Effect Spectrum” value is given as “- . -”.

For the compound `NC12CC3CC(CC(C3)C1)C2.[OH][Ge]12[O]CCN(CC[O]1)CC[O]2` [Midantanum OGC (R = OH)], the “Expansion of Effect Spectrum” value was “- . -”.

Consider `NC12CC3CC(CC(C3)C1)C2.[SH][Ge]12[O]CCN(CC[O]1)CC[O]2` [Midantanum OGC (R = SH)], for which the “Expansion of Effect Spectrum” value was “- . -”.

For `O=C1CN=C(c2ccccc2Cl)c2cc(Br)ccc2N1.[OH][Ge]12[O]CCN(CC[O]1)CC[O]2` [Phenazepamum OGC (R = OH)], the “Expansion of Effect Spectrum” value is “- . -”.

Take `CCC1(c2ccccc2)C(=O)NC(=O)NC1=O.[SH][Ge]12[O]CCN(CC[O]1)CC[O]2` [Phenobarbitalum OGC(R = SH)]: the “Expansion of Effect Spectrum” value is “- . -”.
